Here are results for 14 compounds from patent publication US20230089867A1, “CYCLIC PENTAMER COMPOUNDS AS PROPROTEIN CONVERTASE SUBTILISIN/KEXIN TYPE 9 (PCSK9) INHIBITORS FOR THE TREATMENT OF METABOLIC DISORDER” (Novartis AG, priority 2018, published 2023).

The target in this assay is human PCSK9 (Homo sapiens, UniProt Q8NBP7). Put plainly: PCSK9 ligand binding TR-FRET assay (interference with binding of human PCSK9 to human LDLR). The settings on record: for Max % inhibition: PCSK9 FRET assay, efficacy (Amax), 100% = 1 uM unlabeled human PCSK9, 0% = DMSO; for IC50: TR-FRET, human PCSK9 Alexa Fluor 647 / human LDLR extracellular domain-Europium Kryptate, read-out: PCSK9 FRET Assay IC50. Summed up: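 Threefold compound dilutions were pre-incubated 30 min with PCSK9, after which 4 nM Europium Kryptate-tagged human LDLR ectodomain was added for a further 2 h.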
human PCSK9, sequence (Q8NBP7 153-692): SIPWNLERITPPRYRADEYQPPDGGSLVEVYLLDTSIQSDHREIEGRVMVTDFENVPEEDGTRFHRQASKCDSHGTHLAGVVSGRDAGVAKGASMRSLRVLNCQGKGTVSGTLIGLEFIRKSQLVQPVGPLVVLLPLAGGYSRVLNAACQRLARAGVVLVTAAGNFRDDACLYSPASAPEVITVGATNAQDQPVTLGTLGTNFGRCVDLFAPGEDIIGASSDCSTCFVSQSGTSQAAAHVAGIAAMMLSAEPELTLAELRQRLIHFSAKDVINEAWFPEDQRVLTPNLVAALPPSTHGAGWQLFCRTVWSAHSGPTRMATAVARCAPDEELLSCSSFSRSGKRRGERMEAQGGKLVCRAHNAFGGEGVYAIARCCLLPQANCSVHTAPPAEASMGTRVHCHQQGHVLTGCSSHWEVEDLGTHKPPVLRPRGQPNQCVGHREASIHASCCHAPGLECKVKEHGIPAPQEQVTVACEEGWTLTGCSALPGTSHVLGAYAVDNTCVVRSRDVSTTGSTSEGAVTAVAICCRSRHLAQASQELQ
human PCSK9, sequence (Q8NBP7 31-152 partner limits assumed): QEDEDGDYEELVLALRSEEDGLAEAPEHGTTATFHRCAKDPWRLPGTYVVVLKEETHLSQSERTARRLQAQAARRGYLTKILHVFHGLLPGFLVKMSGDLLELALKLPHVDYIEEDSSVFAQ

Broadly, the IC50 is the concentration that gives 50% inhibition. For the compound `COC[C@@H]1NC(=O)[C@H](C)N(Cc2ccc(Cl)cc2Oc2ccc(-c3cnc(CN4CCCC4)n3C)cc2)C(=O)C[C@@H](Cc2ccccc2)C(=O)N(C)[C@@H](CCN(C)C)CNC(=O)C[C@H](Cc2ccc(Cl)cc2)N(C)C1=O` [Compound 190, (2S,5S,8S,13S,16R)-16-benzyl-1-(4-chloro-2-(4-(1-methyl-2-(pyrrolidin-1-ylmethyl)-1H-imidazol-5-yl)phenoxy)benzyl)-8-(4-chlorobenzyl)-13-(2-(dimethylamino)ethyl)-5-(methoxymethyl)-2,7,14-trimethyl-1,4,7,11,14-pentaazacyclooctadecane-3,6,10,15,18-pentaone], the Max % inhibition is listed as 100.60% and the IC50 stood at 32.6 nM.
Taken in the same sequence, the figures for `COC[C@@H]1NC(=O)[C@H](CCCNC(=O)OC(C)(C)C)N(Cc2ccc(Cl)cc2Oc2ccc(-c3cnc(CN4CCCC4)n3C)cc2)C(=O)C[C@@H](Cc2ccccc2)C(=O)N(C)[C@H]2CCCC[C@@H]2NC(=O)C[C@H](Cc2ccc(Cl)cc2)N(C)C1=O` [Compound 191, tert-butyl (3-((4S,7S,10S,14R,16aS,20aS)-14-benzyl-11-(4-chloro-2-(4-(1-methyl-2-(pyrrolidin-1-ylmethyl)-1H-imidazol-5-yl)phenoxy)benzyl)-4-(4-chlorobenzyl)-7-(methoxymethyl)-5,16-dimethyl-2,6,9,12,15-pentaoxodocosahydrobenzo[l][1,4,7,11,14]pentaazacyclooctadecin-10-yl)propyl)carbamate] were 94.20% and 2.1 nM.
Turning to `COC[C@@H]1NC(=O)[C@H](CCCN)N(Cc2ccc(Cl)cc2Oc2ccc(-c3cnc(CN(C)C)n3C)cc2)C(=O)C[C@@H](Cc2ccccc2)C(=O)N(C)[C@@H](C)CNC(=O)C[C@H](Cc2ccc(Cl)cc2)N(C)C1=O` [Compound 192, (2S,5S,8S,13S,16R)-2-(3-aminopropyl)-16-benzyl-1-(4-chloro-2-(4-(2-((dimethylamino)methyl)-1-methyl-1H-imidazol-5-yl)phenoxy)benzyl)-8-(4-chlorobenzyl)-5-(methoxymethyl)-7,13,14-trimethyl-1,4,7,11,14-pentaazacyclooctadecane-3,6,10,15,18-pentaone], the Max % inhibition was 97.97% and the IC50 amounted to 107 nM.
As to `C[C@@H]1CC(=O)N(Cc2ccc(Cl)cc2Oc2ccc(-c3cnc(CN(C)C)n3C)cc2)[C@@H](C)C(=O)N[C@@H](CO)C(=O)N(C)[C@@H](Cc2ccc(Cl)cc2)CC(=O)NC[C@H](C)N(C)C1=O` [Compound 193, (2S,5S,8S,13S,16R)-1-(4-chloro-2-(4-(2-((dimethylamino)methyl)-1-methyl-1H-imidazol-5-yl)phenoxy)benzyl)-8-(4-chlorobenzyl)-5-(hydroxymethyl)-2,7,13,14,16-pentamethyl-1,4,7,11,14-pentaazacyclooctadecane-3,6,10,15,18-pentaone], the Max % inhibition is reported as 84.54% and the IC50 is 6.1 nM.
`C[C@@H]1C(=O)N[C@@H](CO)C(=O)N(C)[C@@H](Cc2ccc(Cl)cc2)CC(=O)N[C@H]2CCCC[C@@H]2N(C)C(=O)[C@H](Cc2ccccc2)CC(=O)N1Cc1ccc(Cl)cc1Oc1ccc(-c2cnc(CN(C)C)n2C)cc1` [Compound 194, (4S,7S,10R,14R,16aS,20aS)-14-benzyl-11-(4-chloro-2-(4-(2-((dimethylamino)methyl)-1-methyl-1H-imidazol-5-yl)phenoxy)benzyl)-4-(4-chlorobenzyl)-7-(hydroxymethyl)-5,10,16-trimethylhexadecahydrobenzo[l][1,4,7,11,14]pentaazacyclooctadecine-2,6,9,12,15(3H)-pentaone]: the Max % inhibition is recorded as 96.92% and the IC50 worked out at 5.5 nM.
In the same order, the values of `COC[C@@H]1NC(=O)[C@H](C)N(Cc2ccc(Cl)cc2Oc2ccc(-c3cnc(CN(C)C)n3C)cc2)C(=O)CCC(=O)N(C)[C@@H](C)CNC(=O)C[C@H](Cc2ccc(Cl)cc2)N(C)C1=O` [Compound 195, (2S,5S,8S,13S)-1-(4-chloro-2-(4-(2-((dimethylamino)methyl)-1-methyl-1H-imidazol-5-yl)phenoxy)benzyl)-8-(4-chlorobenzyl)-5-(methoxymethyl)-2,7,13,14-tetramethyl-1,4,7,11,14-pentaazacyclooctadecane-3,6,10,15,18-pentaone] are 100.43% and 73.4 nM.
In the case of `COC[C@@H]1NC(=O)[C@H](C)N(Cc2c(Oc3ccc(-c4cnc(CN(C)C)n4C)cc3)cccc2OC(F)F)C(=O)CCC(=O)N(C)[C@H]2CCCC[C@@H]2NC(=O)C[C@H](Cc2ccc(Cl)cc2)N(C)C1=O` [Compound 196, (4S,7S,10S,16aS,20aS)-4-(4-chlorobenzyl)-11-(2-(difluoromethoxy)-6-(4-(2-((dimethylamino)methyl)-1-methyl-1H-imidazol-5-yl)phenoxy)benzyl)-7-(methoxymethyl)-5,10,16-trimethylhexadecahydrobenzo[l][1,4,7,11,14]pentaazacyclooctadecine-2,6,9,12,15(3H)-pentaone], the Max % inhibition amounted to 97.92% and the IC50 was 3 nM.
As for `COC[C@@H]1NC(=O)[C@H](C)N(Cc2ccc(Cl)cc2Oc2ccc(-c3cnc(OC)n3C)cc2)C(=O)C[C@@H](Cc2ccccc2)C(=O)N(C)[C@@H](C)CNC(=O)C[C@H](Cc2ccc(Cl)cc2)N(C)C1=O` [Compound 197, (2S,5S,8S,13S,16R)-16-benzyl-1-(4-chloro-2-(4-(2-methoxy-1-methyl-1H-imidazol-5-yl)phenoxy)benzyl)-8-(4-chlorobenzyl)-5-(methoxymethyl)-2,7,13,14-tetramethyl-1,4,7,11,14-pentaazacyclooctadecane-3,6,10,15,18-pentaone], the Max % inhibition turned out to be 72.51% and the IC50 amounted to 17.4 nM.
Taken in the same sequence, the figures for `COC[C@@H]1NC(=O)[C@H](C)N(Cc2ccc(Cl)cc2Oc2ccc(-c3cnc(CN4CCCC4)n3C)cc2)C(=O)C[C@@H](Cc2ccccc2)C(=O)N(C)[C@@H](C)[C@H](C)NC(=O)C[C@H](Cc2ccc(Cl)cc2)N(C)C1=O` [Compound 198, (2S,5S,8S,12S,13S,16R)-16-benzyl-1-(4-chloro-2-(4-(1-methyl-2-(pyrrolidin-1-ylmethyl)-1H-imidazol-5-yl)phenoxy)benzyl)-8-(4-chlorobenzyl)-5-(methoxymethyl)-2,7,12,13,14-pentamethyl-1,4,7,11,14-pentaazacyclooctadecane-3,6,10,15,18-pentaone] were 98.27% and 0.6 nM.
Taken in the same sequence, the figures for `COC[C@@H]1NC(=O)[C@H](C)N(Cc2ccc(F)cc2Oc2ccc(-c3cnc(CN(C)C)n3C)cc2)C(=O)C[C@@H](Cc2ccccc2)C(=O)N(C)[C@@H](C)CNC(=O)C[C@H](Cc2ccc(Cl)cc2)N(C)C1=O` [Compound 199, (2S,5S,8S,13S,16R)-16-benzyl-8-(4-chlorobenzyl)-1-(2-(4-(2-((dimethylamino)methyl)-1-methyl-1H-imidazol-5-yl)phenoxy)-4-fluorobenzyl)-5-(methoxymethyl)-2,7,13,14-tetramethyl-1,4,7,11,14-pentaazacyclooctadecane-3,6,10,15,18-pentaone] were 100.29% and 24.8 nM.
Taken in the same sequence, the figures for `COC[C@H]1C(=O)N[C@@H](CO)C(=O)N(C)[C@@H](Cc2ccc(Cl)cc2)CC(=O)NC[C@H](C)N(C)C(=O)CCC(=O)N1Cc1ccccc1Oc1ccc(-c2cnc(CN(C)C)n2C)cc1` [Compound 200, (2S,5S,8S,13S)-8-(4-chlorobenzyl)-1-(2-(4-(2-((dimethylamino)methyl)-1-methyl-1H-imidazol-5-yl)phenoxy)benzyl)-5-(hydroxymethyl)-2-(methoxymethyl)-7,13,14-trimethyl-1,4,7,11,14-pentaazacyclooctadecane-3,6,10,15,18-pentaone] were 93.78% and 65.4 nM.
With `COC[C@@H]1NC(=O)[C@H](C)N(Cc2ccc(Cl)cc2Oc2ccc(-c3cnc(CN(C)C)n3C)cc2)C(=O)CC2(CC2)C(=O)N(C)[C@@H](C)CNC(=O)C[C@H](Cc2ccc(Cl)cc2)N(C)C1=O` [Compound 201, (6S,11S,14S,17S)-18-(4-chloro-2-(4-(2-((dimethylamino)methyl)-1-methyl-1H-imidazol-5-yl)phenoxy)benzyl)-11-(4-chlorobenzyl)-14-(methoxymethyl)-5,6,12,17-tetramethyl-5,8,12,15,18-pentaazaspiro[2.17]icosane-4,9,13,16,19-pentaone], the Max % inhibition is given as 72.22% and the IC50 worked out at 441 nM.
Taken in the same sequence, the figures for `COC[C@@H]1NC(=O)[C@H](C)N(Cc2ccc(Cl)cc2Oc2ccc(-c3cnc(CN(C)C)n3C)cc2)C(=O)CCC(=O)N(C)[C@H]2CCCC[C@@H]2NC(=O)C[C@H](Cc2ccc(Cl)cc2)N(C)C1=O` [Compound 202, (4S,7S,10S,16aS,20aS)-11-(4-chloro-2-(4-(2-((dimethylamino)methyl)-1-methyl-1H-imidazol-5-yl)phenoxy)benzyl)-4-(4-chlorobenzyl)-7-(methoxymethyl)-5,10,16-trimethylhexadecahydrobenzo[l][1,4,7,11,14]pentaazacyclooctadecine-2,6,9,12,15(3H)-pentaone] were 95.27% and 2.9 nM.
In the same order, the values of `COC[C@@H]1NC(=O)[C@H](C)N(Cc2ccc(Cl)cc2Oc2ccc(-c3cnc(CN4CCCC4)n3C)cc2)C(=O)C[C@@H](Cc2ccccc2)C(=O)N(C)[C@H]2CCCC[C@@H]2NC(=O)C[C@H](Cc2ccc(Cl)cc2)N(C)C1=O` [Compound 203, (4S,7S,10S,14R,16aS,20aS)-14-benzyl-11-(4-chloro-2-(4-(1-methyl-2-(pyrrolidin-1-ylmethyl)-1H-imidazol-5-yl)phenoxy)benzyl)-4-(4-chlorobenzyl)-7-(methoxymethyl)-5,10,16-trimethylhexadecahydrobenzo[l][1,4,7,11,14]pentaazacyclooctadecine-2,6,9,12,15(3H)-pentaone] are 90.79% and 2 nM.
